Reference: patent US20080275002A1, “Method for Treatment of Hepatic Cancer” (TAIHO PHARMACEUTICAL CO., LTD., priority 2005, published 2008)

Legend:
[1] = system: advanced hepatocellular carcinoma; assay: Clinical study (Phase I/II) of oral TAC-101 in patients with advanced hepatocellular carcinoma; type: in vivo
Description: Administrations were continued for patients without dose-limiting toxicities (DLT) and without aggravation of the cancer. […] Patients administered with the recommended dose in Phase I part were subjected to data analysis under assumption as Phase II part patients.
Specifically, after determination of the measurable lesions in each patient, the response was classified as complete response (CR), partial response (PR), minor response (MR), stabilization of the disease (SD), or progression of the disease (PD) for the efficacy evaluation.

hepatic cancer = conditions: animal model of hepatic cancer; cited from earlier work
lung cancer = conditions: high dose, 60 to 80 mg/day, patients with lung cancer; cited from earlier work
[2] = biological target: T1, retinoic acid receptor α (RAR-α) (Homo sapiens, UniProt P10276); conditions: activates transcription through the receptor; cited from earlier work
T1 sequence (P10276 1-462): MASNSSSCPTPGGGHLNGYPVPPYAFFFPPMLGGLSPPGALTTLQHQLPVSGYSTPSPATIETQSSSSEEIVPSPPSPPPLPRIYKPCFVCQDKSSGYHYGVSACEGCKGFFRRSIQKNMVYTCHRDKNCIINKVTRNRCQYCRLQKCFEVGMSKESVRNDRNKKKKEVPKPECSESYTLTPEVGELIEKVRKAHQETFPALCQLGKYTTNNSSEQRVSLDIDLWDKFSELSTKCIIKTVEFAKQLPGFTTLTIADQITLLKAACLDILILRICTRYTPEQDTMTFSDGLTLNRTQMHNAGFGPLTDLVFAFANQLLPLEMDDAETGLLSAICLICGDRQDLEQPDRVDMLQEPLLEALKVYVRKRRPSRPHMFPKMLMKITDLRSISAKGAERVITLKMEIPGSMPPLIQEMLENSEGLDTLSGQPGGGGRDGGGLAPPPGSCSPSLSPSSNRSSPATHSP

[3] = 20 mg/day, side effects approximately grade 2

SMILES: C[Si](C)(C)c1cc(C(=O)Nc2ccc(C(=O)O)cc2)cc([Si](C)(C)C)c1 [TAC-101, 4-[3,5-Bis(trimethylsilyl)benzamido]benzoic acid]
- therapy terminated because of grade 3 increase of aspartate aminotransferase (AST) ([1]; 20 mg/day): one
- therapy terminated because of onset of grade 3 venous thrombosis embolism (VTE) ([1]; 20 mg/day): one
- therapy terminated because of onset of grade 4 pulmonary embolism (PE) ([1]; 20 mg/day): one
- patients developing dose-limiting toxicity (DLT) ([1]; 20 mg/day oral, among 7 patients, pancreatitis and fatigue): one
- share of patients with TTF 12 weeks or longer ([1]; 20 mg/day, 9/21): 42%
- PR or CR case (WHO criteria) ([1]; 20 mg/day, 21 evaluable patients): not observed
- time to treatment failure (TTF) ([1]; 20 mg/day, all 21 patients): 6.6 weeks
- patients to whom four or more courses were applicable, progress of the hepatic cancer significantly arrested ([1]; 20 mg/day, of 21 evaluable patients): 9 patients
- patients with TTF 12 weeks or longer (progress arrested, no deterioration) ([1]; 20 mg/day, of 21 patients): 9 patients
- AST increase, incidence [1, 3]: 14.3%
- AST increase, number of patients [1, 3]: 4 patients
- alanine aminotransferase (ALT), incidence [1, 3]: 14.3%
- alanine aminotransferase (ALT), number of patients [1, 3]: 4 patients
- anorexia, incidence [1, 3]: 10.7%
- anorexia, number of patients [1, 3]: 3 patients
- dermatitis, incidence [1, 3]: 21.4%
- dermatitis, number of patients [1, 3]: 6 patients
- fatigue, incidence [1, 3]: 32%
- fatigue, number of patients [1, 3]: 9 patients
- increased triglycerides, incidence [1, 3]: 28.6%
- increased triglycerides, number of patients [1, 3]: 8 patients
- myalgias, incidence [1, 3]: 28.6%
- myalgias, number of patients [1, 3]: 8 patients
- nausea, incidence [1, 3]: 14.3%
- nausea, number of patients [1, 3]: 4 patients
- maximum tolerance dose (MTD) ([1]; 14 days daily oral administration, 7 days withdrawal): 20 mg/day
- antitumor effects (hepatic cancer): demonstrated
- deep vein thrombosis (DVT), dose-limiting toxicity (lung cancer): frequently induces deep vein thrombosis
- tumor response (lung cancer): tumor reducing effects (PR and CR)
- binding to RAR-α [2]: binding selectively
